# Measurements as given in patent publication US4789667A, “External pharmaceutical composition and methods of use” (priority 1984, dated 1988).
# Test system: carrageenan-induced edema
# Test: Carrageenan-induced edema inhibiting effect of betamethasone valerate ointment
# Format: in vivo
# Conditions: rat paw, 0.15 part betamethasone valerate, 9.85 parts enhancer, vs gel ointment base
# Protocol: The carrageenan-induced edema inhibiting effect of the ointment was examined in accordance with the method of E. Passarella [Arzneim, Forsch. 30 (I), No. 4, pages 647-651 (1980)]. Specifically, 0.1 ml of a 1% carrageenan suspension in 0.9% NaCl solution was injected into the tip of the right paw of each rat (body weight 150-175 g). The volume of the paw was measured before the administation of carrageenan and 3, 5 and 6 hours after the carrageenan administration by a mercury displacement device. The ointment was well rubbed into the inflamed site in an amount of 100 mg.
# These ointments were applied to the tip of the paw, and their edema inhibiting effects were examined.
# The percent edema inhibitions were calculated on the basis of the edema formation ratio of a rat to which only the gel ointment base was administered.
SMILES,Edema inhibition (3 hrs.),Edema inhibition (6 hrs.),Edema inhibition (9 hrs.)
"CCCCCCCCCCOC(=O)C1CCC(=O)N1 (racemic) [Compound (102), Decyl DL-pyroglutamate]",16.3%,39.7%,38.3%
"CCCCCCCCCCCOC(=O)C1CCC(=O)N1 (racemic) [Compound (104), Undecyl DL-pyroglutamate]",20.3%,40.1%,35.4%
"CCCCCCCCCCCCOC(=O)C1CCC(=O)N1 (racemic) [Compound (106), Dodecyl DL-pyroglutamate]",17.4%,40.1%,40.0%
"CCCCCCCCCCCCCOC(=O)C1CCC(=O)N1 (racemic) [Compound (108), Tridecyl DL-pyroglutamate]",18.8%,35.3%,38.1%
"CCCCCCCCCCCCCCOC(=O)C1CCC(=O)N1 (racemic) [Compound (110), Tetradecyl DL-pyroglutamate]",17.4%,38.0%,38.6%
CCCCCCCCCCCCCCCCCCCCOC(=O)C1CCC(=O)N1 (racemic) [Eicosanyl DL-pyroglutamate],9.2%,11.1%,16.7%
CCOC(=O)C1CCC(=O)N1 (racemic) [Ethyl DL-pyroglutamate],9.5%,10.2%,12.1%
CCCCCCCCCCCCCCCCCOC(=O)C1CCC(=O)N1 (racemic) [Heptadecyl DL-pyroglutamate],10.5%,12.8%,14.8%
CCCCCCCOC(=O)C1CCC(=O)N1 (racemic) [Heptyl DL-pyroglutamate],10.7%,10.9%,9.5%
CCCCCCOC(=O)C1CCC(=O)N1 (racemic) [Hexyl DL-pyroglutamate],11.2%,11.5%,11.0%
CCCCCCCCCCCCCCCCCCOC(=O)C1CCC(=O)N1 (racemic) [Octadecyl DL-pyroglutamate],9.6%,13.0%,15.6%
"CCCCCCCCCCOC(=O)[C@@H]1CCC(=O)N1 [Compound (112), Decyl L-pyroglutamate]",18.6%,38.9%,37.4%
"CCCCCCCCCCCOC(=O)[C@@H]1CCC(=O)N1 [Compound (114), Undecyl L-pyroglutamate]",20.2%,38.5%,37.3%
"CCCCCCCCCCCCOC(=O)[C@@H]1CCC(=O)N1 [Compound (116), Dodecyl L-pyroglutamate]",19.8%,40.2%,40.3%
"CCCCCCCCCCCCCOC(=O)[C@@H]1CCC(=O)N1 [Compound (118), Tridecyl L-pyroglutamate]",20.0%,38.5%,36.8%
"CCCCCCCCCCCCCCOC(=O)[C@@H]1CCC(=O)N1 [Compound (120), Tetradecyl L-pyroglutamate]",17.8%,38.5%,39.6%
"CCC=CCCCCCCCCOC(=O)[C@@H]1CCC(=O)N1 [Compound (220), 9-Dodecenyl L-pyroglutamate]",18.3%,37.7%,36.9%
"CC1CCC(C(C)C)C(OC(=O)[C@@H]2CCC(=O)N2)C1 (stereo partly drawn) [Compound (308), Menthyl L-pyroglutamate]",17.0%,38.0%,40.2%
"CC1(C)C2CCC1(C)C(OC(=O)[C@@H]1CCC(=O)N1)C2 (stereo partly drawn) [Compound (310), Bornyl L-pyroglutamate]",17.0%,39.4%,40.2%
